Laboratory results taken from patent US11371013B2, “Culture medium composition and method of culturing cell or tissue using thereof” (Nissan Chemical Industries, Ltd., priority 2012, dated 2022).

Columns and labels:
Type in all cases: cell-based, human
[1] = tested on: HeLa cells; assay: Cell proliferation test using various anticancer drugs; settings: DAG 0.030% medium; for cell density: HeLa cells 5 days later
Procedure: This aqueous solution was sterilized at 121° C. for 20 min in an autoclave. […] The anticancer drug used was Adriamycin (manufactured by WAKO), Paclitaxel (manufactured by WAKO) or Mitomycin C (manufactured by WAKO).
Successively, this plate was cultured by being stood still in a CO2 incubator (37° C., 5% CO2) for 7 days. After culturing for 3, 5, 7 days, to the culture medium was added a WST-8 solution (manufactured by DOJINDO Laboratories, 20 μL), and the mixture was incubated at 37° C. for 100 min. The absorbance at 450 nm was measured by an absorbance spectrometer (manufactured by Molecular Devices, SPECTRA MAX 190), and the number of viable cells was measured by subtracting the absorbance of the medium alone. The culture medium containing the cells after 5 days of culture was stirred with a pipette and the obtained stirred solution (20 μL) was mixed with Trypan Blue stain 0.4% (manufactured by Invitrogen, 20 μL) and the cell density was measured under a microscope.

[2] = tested on: HeLa cells; assay: Comparison with single layer culture method in cell proliferation test using agent for inducing apoptosis; settings: day 4
Procedure: (§1) This aqueous solution was sterilized at 121° C. for 20 min in an autoclave.
Each plate was cultured by being stood still in a CO2 incubator (37° C., 5% CO2). […] To the culture medium on day 4 was added an ATP reagent (150 μL) (CellTiter-Glo (registered trade mark) Luminescent Cell Viability Assay, manufactured by Promega) to give a suspension, which was stood for about 10 min at room temperature, and the luminescence intensity (RLU value) was measured by FlexStation3 (manufactured by Molecular Devices), and the number of viable cells was measured by subtracting the luminescence value of the medium alone. For WST-8 measurement, a WST-8 solution (manufactured by is DOJINDO Laboratories, 15 μL) was added, the mixture was incubated at 37° C. for 100 min, the absorbance at 450 nm was measured by an absorbance spectrometer (manufactured by Molecular Devices, SPECTRA MAX 190), and the number of viable cells was measured by subtracting the absorbance of the medium alone.

[3] = tested on: HeLa cells; assay: HeLa cell proliferation test using Trametinib and MK-2206; settings: drug from day 1 for 5 days
Procedure: as §1
(§2) Each plate was cultured by being stood still in a CO2 incubator (37° C., 5% CO2). […] The anticancer drugs used were Trametinib (manufactured by Santa Cruz, MEK inhibitor) and MK-2206 (manufactured by Santa Cruz, Akt inhibitor). To the culture medium on day 6 was added an ATP reagent (150 μL) (CellTiter-Glo (registered trade mark) Luminescent Cell Viability Assay, manufactured by Promega) to give a suspension, which was stood for about 10 min at room temperature, and the luminescence intensity (RLU value) was measured by FlexStation3 (manufactured by Molecular Devices), and the number of viable cells was measured by subtracting the luminescence value of the medium alone.

[4] = tested on: A549 cells; assay: A549 cell proliferation test using Trametinib and MK-2206; settings: drug from day 1 for 5 days
Procedure: This aqueous solution was sterilized at 121° C. for 20 min is in an autoclave.
as §2

[5] = tested on: HeLa cells; assay: Comparison with single layer culture method in cell proliferation test using anticancer drug; settings: day 4
Procedure: as §1
Each plate was cultured by being stood still in a CO2 incubator (37° C., 5% CO2). […] The anticancer drug used was Adriamycin (manufactured by WAKO), Paclitaxel (manufactured by WAKO) or Mitomycin C (manufactured by WAKO). To the culture medium on day 4 was added an ATP reagent (150 μL) (CellTiter-Glo (registered trade mark) Luminescent Cell Viability Assay, manufactured by Promega) to give a suspension, which was stood for about 10 min at room temperature, and the luminescence intensity (RLU value) was measured by FlexStation3 (manufactured by Molecular Devices), and the number of viable cells was measured by subtracting the luminescence value of the medium alone. For WST-8 measurement, a WST-8 solution (manufactured by DOJINDO Laboratories, 15 μL) was added, the mixture was incubated at 37° C. for 100 min, the absorbance at 450 nm was measured by an absorbance spectrometer (manufactured by Molecular Devices, SPECTRA MAX 190), and the number of viable cells was measured by subtracting the absorbance of the medium alone.

[6] = 10 μM, deacylated gellan gum addition group (0.015%)
[7] = 10 μM, single layer culture group
[8] = 100 μM, deacylated gellan gum addition group (0.015%)
[9] = 100 μM, single layer culture group
[10] = 0.001 μM, deacylated gellan gum addition group (0.015%)
[11] = 0.001 μM, single layer culture group
[12] = 0.01 μM, deacylated gellan gum addition group (0.015%)
[13] = 0.01 μM, single layer culture group
[14] = 0.1 μM, deacylated gellan gum addition group (0.015%)
[15] = 0.1 μM, single layer culture group
[16] = 1 μM, deacylated gellan gum addition group (0.015%)
[17] = 1 μM, single layer culture group
[18] = 0.005 μM, deacylated gellan gum addition group (0.015%)
[19] = 0.005 μM, single layer culture group
[20] = 0.05 μM, deacylated gellan gum addition group (0.015%)
[21] = 0.05 μM, single layer culture group
[22] = 0.5 μM, deacylated gellan gum addition group (0.015%)
[23] = 0.5 μM, single layer culture group

SMILES: COc1cccc2c1C(=O)c1c(O)c3c(c(O)c1C2=O)C[C@@](O)(C(=O)CO)C[C@@H]3O[C@H]1C[C@H](N)[C@H](O)[C@H](C)O1 [Adriamycin]
- cell density ([1]; 1 μM): 0.6 10^4 cells/mL

SMILES: C[C@@H]1C[C@@H]([C@H](O)CC2CC(=O)NC(=O)C2)C(=O)[C@@H](C)C1 [Cycloheximide]
- % Control of RLU value (ATP) [2, 6]: 9 % Control
- % Control of absorbance at 450 nm (WST-8) [2, 6]: 4 % Control
- % Control of RLU value (ATP) [2, 7]: 29 % Control
- % Control of absorbance at 450 nm (WST-8) [2, 7]: 21 % Control
- % Control of RLU value (ATP) [2, 8]: 4 % Control
- % Control of absorbance at 450 nm (WST-8) [2, 8]: 1 % Control
- % Control of RLU value (ATP) [2, 9]: 9 % Control
- % Control of absorbance at 450 nm (WST-8) [2, 9]: 7 % Control

SMILES: CC(=O)Nc1cccc(-n2c(=O)n(C3CC3)c(=O)c3c(Nc4ccc(I)cc4F)n(C)c(=O)c(C)c32)c1 [Trametinib]
- % Control of RLU value (ATP) [3, 10]: 73 % Control
- % Control of RLU value (ATP) [3, 11]: 102 % Control
- % Control of RLU value (ATP) [3, 12]: 12 % Control
- % Control of RLU value (ATP) [3, 13]: 93 % Control
- % Control of RLU value (ATP) [3, 14]: 1 % Control
- % Control of RLU value (ATP) [3, 15]: 20 % Control
- % Control of RLU value (ATP) [3, 16]: 1 % Control
- % Control of RLU value (ATP) [3, 17]: 3 % Control
- % Control of RLU value (ATP) [4, 10]: 72 % Control
- % Control of RLU value (ATP) [4, 11]: 71 % Control
- % Control of RLU value (ATP) [4, 12]: 35 % Control
- % Control of RLU value (ATP) [4, 13]: 37 % Control
- % Control of RLU value (ATP) [4, 14]: 2 % Control
- % Control of RLU value (ATP) [4, 15]: 5 % Control
- % Control of RLU value (ATP) [4, 16]: 0 % Control
- % Control of RLU value (ATP) [4, 17]: 1 % Control

SMILES: CO[C@@]12[C@H](COC(N)=O)C3=C(C(=O)C(C)=C(N)C3=O)N1C[C@@H]1N[C@@H]12 [Mitomycin C]
- cell density ([1]; 0.01 μM): 1.0 10^4 cells/mL
- cell number (absorbance at 450 nm, WST-8) ([1]; 0.01 μM, culture day 3): 0.089
- cell number (absorbance at 450 nm, WST-8) ([1]; 0.01 μM, culture day 5): 0.016
- cell number (absorbance at 450 nm, WST-8) ([1]; 0.01 μM, culture day 7): <0
- cell density ([1]; 0.1 μM): 0.4 10^4 cells/mL
- cell number (absorbance at 450 nm, WST-8) ([1]; 0.1 μM, culture day 3): 0.032
- cell number (absorbance at 450 nm, WST-8) ([1]; 0.1 μM, culture day 5): <0
- cell number (absorbance at 450 nm, WST-8) ([1]; 0.1 μM, culture day 7): <0
- cell density ([1]; 1 μM): 0.1 10^4 cells/mL
- cell number (absorbance at 450 nm, WST-8) ([1]; 1 μM, culture day 3): <0
- cell number (absorbance at 450 nm, WST-8) ([1]; 1 μM, culture day 5): <0
- cell number (absorbance at 450 nm, WST-8) ([1]; 1 μM, culture day 7): <0
- % Control of RLU value (ATP) [5, 18]: 83 % Control
- % Control of absorbance at 450 nm (WST-8) [5, 18]: 94 % Control
- % Control of RLU value (ATP) [5, 19]: 99 % Control
- % Control of absorbance at 450 nm (WST-8) [5, 19]: 101 % Control
- % Control of RLU value (ATP) [5, 20]: 48 % Control
- % Control of absorbance at 450 nm (WST-8) [5, 20]: 37 % Control
- % Control of RLU value (ATP) [5, 21]: 89 % Control
- % Control of absorbance at 450 nm (WST-8) [5, 21]: 83 % Control
- % Control of RLU value (ATP) [5, 22]: 29 % Control
- % Control of absorbance at 450 nm (WST-8) [5, 22]: 12 % Control
- % Control of RLU value (ATP) [5, 23]: 86 % Control
- % Control of absorbance at 450 nm (WST-8) [5, 23]: 71 % Control
